Results from US9212204B2, “Treatment of rett syndrome using glycyl-L-2-methylprolyl-L-glutamic acid” (priority 2011, dated 2015).
Non-standard residues stand in square brackets, D forms with d. Residues, ends and D or L forms follow the SMILES beside them. αMeP = C[C@@]1(C(=O)O)CCCN1

Key:
[1] = system: GFAP-positive reactive astrocytes; test: GFAP staining, astrocytosis in aged brains; format: in vivo, rat; details: i.p.; 18-month old rats; 3 d after injection; vs vehicle p<0.05, particularly 0.12 and 12 mg/kg
Description: To carry out these studies, tissues were fixed and embedded in paraffin and sections obtained using standard methods. Coronal sections (6 μm) containing the level of the hippocampus were cut and mounted on chrome-alum-coated slides for staining. The sections were deparaffinized in xylene, dehydrated in a series of ethanol and incubated in 0.1 M phosphate buffered saline (PBS).
Primary antibodies against glial fibrillary acidic protein (GFAP) and proliferating cell nuclear antigen (PCNA) were used to mark reactive glial cells and cells undergoing apoptosis and proliferation, respectively. […]
Control sections were processed in the same way except the primary antibody was omitted from the incubation solution. The number of PCNA positive cells was counted in the subventricular zone and the GFAP positive cells was scored in the cerebral cortex.
Using GFAP as a marker for reactive astrocytes, the number of GFAP-positive cells was counted in the CA4 sub-region of the hippocampus of aged rats treated with G-2MeP or vehicle. […]
We also evaluated effects of G-2-MePE on astrocytosis in the CA4 sub-region of the hippocampus in aged rats. […]
GFAP-positive cells were counted using a computerised program (Discovery 1). G-2-MePE was administered intra-peritoneally and the numbers of GFAP-positive cells were assessed 3d after the injection. […]

[2] = system: layer 5 pyramidal neurons in motor cortex of P28 knockout mice; test: Golgi staining, cortical spine density; format: in vivo, mouse; details: knockout with treatment
Description: Samples (<1 cm) from P28 mice are fixed in 10% formalin and 3% potassium bichromate for 24 hours. Tissue is then transferred into 2% silver nitrate for 2 days in the dark at room temperature. Sections from these samples are then cut at 50 μm thickness into distilled water. Sections corresponding to motor cortex are mounted onto slides, air dried for 10 minutes, and then dehydrated through sequential rinses of 95% alcohol, 100% alcohol, and xylene, and then sealed with a coverslip. Images re acquired at 10× (whole cell) and 100× (spine imaging) using a Zeiss Pascal 5 Exciter confocal microscope.
We use Golgi staining to label neurons sparsely and distinctly, and applied high-resolution confocal imaging to measure dendritic spine density and morphology in the labelled cells, restricting analysis to layer 5 pyramidal neurons in sections of motor cortex from critical period mice (P28).
While low-magnification imaging clearly delineates the extent of the dendrites of the pyramidal cells we use higher magnifications to count synaptic contacts and determine the morphological class of each spine. We classify spines as either large and bulbous (“mushroom”, M), short and stubby (“stubby”, S), short and thin (“thin”, T) or filopodia (F).

[3] = system: subjects with an Autism Spectrum Disorder; test: Placebo-controlled crossover study in subjects with an Autism Spectrum Disorder; format: in vivo, human
From the text: To determine whether G-2-MePE can treat symptoms of ASD, we carry out a study in human beings with ASD. Twenty subjects with an Autism Spectrum Disorder are recruited. Subjects are male and aged between 16 and 65 years (Mean=18.1 SD=3.4). All subjects have an IQ >60 and strict DSM-IV-TR diagnosis of Autistic Disorder or Asperger Disorder, Subjects also meet criteria for an Autism Spectrum Disorder according the ADI-R and ADOS-G instruments, and fulfill the proposed DSM-V criteria for and Autism Spectrum Disorder. Subjects are instructed that concomitant medications are to be stable for at least six weeks prior to study. Subjects receiving medication to treat signs of inattention are tested in the morning and instructed to take their medication in the afternoon. Subjects better treated with atypical anti-psychotic medications indicated for autism are excluded. Subjects are screened for known genetic disorders including and those with Fragile X Syndrome or tuberous sclerosis excluded. Subjects with uncontrolled epilepsy are excluded.
The study is a double blind placebo-controlled crossover study with three phases. Subjects enter each phase of the crossover in a randomized order. In the test phases, subjects receive either placebo, 10 mg/kg T.I.D oral G-2-MePE for five days, or 30 mg/kg T.I.D. oral G-2-MePE. Each phase of the crossover is separated by a washout period of fourteen days.
Subjects are tested at baseline using the following instruments: Wechsler IQ, Abberant Behavior Checklist Community Edition (ABC), Vinelands, Yale-Brown Obsessive Compulsive Scale (YBOCS) compulsion subscale, Social Responsiveness Scale (SRS), Clinical Global Impression of Severity (CGI-S) and their carers complete the Caregiver Strain Questionnaire (CSQ).
Subjects are administered two tasks—the Reading the Mind in the Eyes Test—Revised (RMET) and an Eye Tracking (ET) task, as well as Clinical Global Impression of Improvement (CGI-1). Tasks commence two hours following administration of placebo or either dose of G-2-MePE. The RMET is a computer based task that assesses one's ability to read emotions from the eyes of subtle affective facial expressions and is a widely used test of emotion recognition in patients with autism (2001). Importantly, the RMET is capable of detecting improvement with even a single dose of a pharmacological agent (Guastella et al., 2010). Eye tracking issues are characteristic of patients with autism who spend less time looking at the eyes of photographs of human faces. Again, a single administration of a pharmacologic intervention can ameliorate eye tracking deficits in autism (Andari et al, 2010).
Adverse events are also recorded using standard safety measures.
Statistically, the effect of treatment with G-2-MePE is analysed by conducting a repeated analysis of covariance (ANCOVA) on the effect of treatment on change from baseline scores.

[4] = system: animals with penetrating ballistic injury; details: pTBI; cited from earlier work

C[C@@]1(C(=O)N[C@@H](CCC(=O)O)C(=O)O)CCCN1C(=O)CN [Example G-2-MePE, Glycyl-L-2-methylprolyl-L-glutamic acid] (H-Gly-[αMeP]-Glu-OH)
number of reactive astrocytes (GFAP) in the CA4 region of the hippocampus [1]: reduced
density of spines per unit branch [2]: largely ameliorated
percent correct responses on the RMET ([3]; 30 mg/kg T.I.D. oral): increases
Serious Adverse Events ([3]; 10 or 30 mg/kg T.I.D. oral): No Serious Adverse Events
adverse events ([3]; 10 or 30 mg/kg T.I.D. oral, vs placebo): no more adverse events than were present during treatment with placebo
tolerability ([3]; ASD population): well tolerated
performance of the RMET test ([3]; overall treatment effect): significant overall improvement
time spent looking at the eye region in the ET test ([3]; overall treatment effect): significant overall improvement
neuroinflammation [4]: inhibits
